# Experimental data taken from PubChem BioAssay (NCI).
#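 Cultured in 96-well plates, cells were exposed to test compound for 48 hours across five concentrations. Here, GI50 denotes the concentration required for 50% inhibition of growth. At the TGI there is no net growth.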
# Experiments:
# Assay in all cases: NCI tumour cell line growth inhibition, 48 h
# [1] = system: 786-0 renal
# [2] = system: HCC-2998 colon
# [3] = system: HL-60(TB) leukemia
# [4] = system: HT29 colon
# [5] = system: KM12 colon
# [6] = system: M14 melanoma
# [7] = system: NCI-H226 lung
# [8] = system: NCI-H522 lung
# [9] = system: SK-MEL-2 melanoma
# [10] = system: SK-OV-3 ovarian
SMILES,GI50 [1] [µM],TGI [1] [µM],GI50 [2] [nM],TGI [2] [µM],GI50 [3] [nM],TGI [3] [µM],GI50 [4] [nM],TGI [4] [µM],GI50 [5] [nM],TGI [5] [µM],GI50 [6] [nM],TGI [6] [µM],GI50 [7] [nM],TGI [7] [µM],GI50 [8] [nM],TGI [8] [µM],GI50 [9] [nM],TGI [9] [µM],TGI [10] [µM],GI50 [10] [µM]
CCCOC(=O)N[C@H]1CCc2c(Cl)c(OC)c(OC)c(OC)c2-c2ccc(SC)c(=O)cc21,< 0.0174,21.5,< 11.2,0.7,< 10,< 0.01,< 10,37.6,< 10,1.63,< 10,4.47,< 10,12.5,< 10,0.271,1880,29.9,,
O=C(O)CSCCc1ccccc1,,> 100,,,,1.98,,> 100,,> 100,,> 100,,> 100,,> 100,,> 100,> 100,
CC(=O)c1ccc(NC(=O)/C(CC(=O)c2sc(-c3cccnc3)nc2C)=N/NC(N)=O)cc1,,83.8,,,,72.9,,> 100,,> 100,,> 100,,75.6,,> 100,,> 100,> 100,
Cn1c(Cl)c(/C=C2/C(=O)Nc3ccccc32)c2ccccc21,1.32,20.5,,,140,1.92,144,> 100,68.9,1.27,248,5.46,1830,21.9,2390,22.4,2320,26.1,10.5,0.732
CC1(O)C(C)(O)C2(C)O[Te]3(OC12C)OC1(C)C(C)(O)C(C)(O)C1(C)O3 (stereo not drawn),,> 100,,> 100,,31.5,,> 100,,> 100,,> 100,,89.2,,42.2,,> 100,,
COc1ccc2c(c1)C(=O)/C(=C/c1cccc(OCC(=O)c3ccccc3)c1)O2,4.59,17.5,1740,3.16,1390,3.23,3100,7.56,4230,16.1,,,15900,43.5,1620,3.26,16700,30.5,29.2,15.8
COc1ccc(C=O)cc1O[Si](C)(C)C(C)(C)C,,> 100,,> 100,,> 100,,> 100,,> 100,,> 100,,,,,,> 100,> 100,
CC(C)C(O)(C(C)C)C(C)C,,> 100,,,,> 100,,> 100,,> 100,,> 100,,> 100,,> 100,,> 100,> 100,
O=C(Nc1ccc(Cl)cc1)C1C(=O)C(=O)N(c2ccc(Cl)cc2)C1=O (stereo not drawn),,> 100,,,,> 100,,> 100,,> 100,,> 100,,> 100,,> 100,,> 100,> 100,
C=C(C)[C@@H]1CC[C@]2(COCCCN)CC[C@]3(C)[C@H](CC[C@@H]4[C@@](C)(CCCNCCCN)[C@H](C(=C)C)CC[C@]43C)[C@@H]12,1.56,2.96,,,1640,3.47,,,1740,3.14,1900,3.62,,,1880,3.78,1890,3.71,4.9,2.23
CN(C)Cc1cc(C(F)(F)F)ccc1C(O)(c1ccccc1)c1ccccc1,,27.7,,,,24.7,,21.6,,49.6,,25.3,,31.1,,35,,41,56.5,
O=C1N/C(=C\[N+](=O)[O-])c2ccccc21,,> 100,,> 100,,> 100,,> 100,,> 100,,> 100,,> 100,,> 100,,,> 100,
COc1cc(Nc2ncccc2C(=O)Nc2nc3ccc(F)cc3s2)cc(OC)c1OC,5.51,> 100,2930,6.96,,,5150,> 100,3790,> 100,3080,> 100,2950,> 100,1540,5.1,2340,8.04,> 100,7.4
CCCC1(CC(=O)O)OCCc2c1[nH]c1ccccc21 (stereo not drawn),,> 100,,> 100,,> 100,,,,> 100,,> 100,,> 100,,,,> 100,> 100,
Cc1ccc(S(=O)(=O)N=Nc2c(O)[nH]c3cc(O)c(C(=O)O)cc23)cc1,,> 100,,> 100,,,,> 100,,> 100,,> 100,,> 100,,> 100,,> 100,> 100,
COc1ccc2c(c1)C(=O)CCc1cc(OC)c(OC)c(OC)c1-2,< 0.01,> 100,< 10,,,,< 10,,< 10,,< 10,> 100,< 10,,,,< 10,,> 100,
CC(C)CNc1nc(-c2ccccc2Cl)nc2ccccc12,16.8,30.4,19800,35.9,,,,,23400,64.4,19500,35.1,17700,35,25500,> 100,23500,63.4,50.1,21.3
Cc1cn(C2CC(OC(=O)c3ccc(Cl)cc3)C(COC(=O)c3ccc(Cl)cc3)O2)c(=O)[nH]c1=O (stereo not drawn),,> 100,,,,> 100,,> 100,,> 100,,> 100,,> 100,,> 100,,> 100,> 100,
Cc1ccc(S(=O)(=O)OC2CC=CC2)cc1,,> 100,,> 100,,> 100,,> 100,,> 100,,> 100,,> 100,,,,> 100,> 100,
